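Following 48 hours of exposure in 96-well plates, responses at five concentrations were used to interpolate endpoints linearly. The concentration for 50% growth inhibition is given as GI50. TGI: total growth inhibition.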
Legend:
Experiment in all cases: NCI-60 cell line screen, 48 h
COLO 205 colon = tested on: COLO 205 colon
SF-539 CNS = tested on: SF-539 CNS
SF-295 CNS = tested on: SF-295 CNS
HS 578T breast = tested on: HS 578T breast
UACC-62 melanoma = tested on: UACC-62 melanoma
HCT-116 colon = tested on: HCT-116 colon
SN12C renal = tested on: SN12C renal
T-47D breast = tested on: T-47D breast
OVCAR-3 ovarian = tested on: OVCAR-3 ovarian
CAKI-1 renal = tested on: CAKI-1 renal
SK-MEL-28 melanoma = tested on: SK-MEL-28 melanoma
MOLT-4 leukemia = tested on: MOLT-4 leukemia
ACHN renal = tested on: ACHN renal
HOP-62 NSCLC = tested on: HOP-62 NSCLC
NCI-H226 lung = tested on: NCI-H226 lung
OVCAR-4 ovarian = tested on: OVCAR-4 ovarian
RXF 393 renal = tested on: RXF 393 renal
EKVX NSCLC = tested on: EKVX NSCLC
OVCAR-8 ovarian = tested on: OVCAR-8 ovarian
K-562 leukemia = tested on: K-562 leukemia
PC-3 prostate = tested on: PC-3 prostate
SW-620 colon = tested on: SW-620 colon
A498 renal = tested on: A498 renal
OVCAR-5 ovarian = tested on: OVCAR-5 ovarian
CCRF-CEM leukemia = tested on: CCRF-CEM leukemia
UACC-257 melanoma = tested on: UACC-257 melanoma
SK-OV-3 ovarian = tested on: SK-OV-3 ovarian
NCI-H522 lung = tested on: NCI-H522 lung
SF-268 CNS = tested on: SF-268 CNS

Cc1c(-c2ccc(N3CCc4cccc(C(=O)Nc5nc6ccccc6s5)c4C3)nc2C(=O)O)cnn1CC12CC3CC(CC(C3)C1)C2
GI50 (COLO 205 colon): 0.63 µM
TGI (COLO 205 colon): 10.9 µM
GI50 (SF-539 CNS): 6.51 µM
TGI (SF-539 CNS): 21.8 µM
GI50 (SF-295 CNS): 3.53 µM
TGI (SF-295 CNS): 11.6 µM
GI50 (HS 578T breast): 3.77 µM
TGI (HS 578T breast): 38.4 µM
GI50 (UACC-62 melanoma): 3.65 µM
TGI (UACC-62 melanoma): 15.4 µM
GI50 (HCT-116 colon): 3.23 µM
TGI (HCT-116 colon): 14.9 µM
GI50 (SN12C renal): 6.93 µM
TGI (SN12C renal): 29.8 µM
GI50 (T-47D breast): 6.59 µM
TGI (T-47D breast): 30.7 µM
GI50 (OVCAR-3 ovarian): 6.19 µM
TGI (OVCAR-3 ovarian): 20.9 µM
GI50 (CAKI-1 renal): 8.35 µM
TGI (CAKI-1 renal): 23.4 µM
GI50 (SK-MEL-28 melanoma): 6.27 µM
TGI (SK-MEL-28 melanoma): 19.3 µM
GI50 (MOLT-4 leukemia): < 0.01 µM
GI50 (ACHN renal): 4.83 µM
TGI (ACHN renal): 18.5 µM
GI50 (HOP-62 NSCLC): 10.1 µM
TGI (HOP-62 NSCLC): 27.8 µM
GI50 (NCI-H226 lung): 13.7 µM
TGI (NCI-H226 lung): 50.6 µM
GI50 (OVCAR-4 ovarian): 6.72 µM
TGI (OVCAR-4 ovarian): 33.2 µM
GI50 (RXF 393 renal): 0.0853 µM
TGI (RXF 393 renal): 4.61 µM
GI50 (EKVX NSCLC): 8.62 µM
TGI (EKVX NSCLC): 28.3 µM
GI50 (OVCAR-8 ovarian): 7.49 µM
TGI (OVCAR-8 ovarian): 33 µM
GI50 (K-562 leukemia): 7.51 µM
TGI (K-562 leukemia): > 100 µM
GI50 (PC-3 prostate): 1.42 µM
TGI (PC-3 prostate): 6.15 µM
GI50 (SW-620 colon): 8.54 µM
TGI (SW-620 colon): 37.1 µM
GI50 (A498 renal): < 0.01 µM
TGI (A498 renal): < 0.0127 µM
GI50 (OVCAR-5 ovarian): 11.4 µM
TGI (OVCAR-5 ovarian): 32.4 µM
GI50 (CCRF-CEM leukemia): < 0.01 µM
TGI (CCRF-CEM leukemia): 10.4 µM
GI50 (UACC-257 melanoma): 10.5 µM
TGI (UACC-257 melanoma): 30.2 µM
GI50 (SK-OV-3 ovarian): 6.99 µM
TGI (SK-OV-3 ovarian): 21.3 µM
GI50 (NCI-H522 lung): 10.8 µM
TGI (NCI-H522 lung): 28 µM
GI50 (SF-268 CNS): 8.05 µM
